US20040235922A1, “Compositions and methods for inducing adipose tissue cell death” (priority 2003, published 2004)
Entries after “also recorded” stand apart in the source; their conditions may differ.

Columns and labels:
brain and liver = conditions: in vivo; cited from earlier work
[1] = test system: female and male WT and GDF-8 KO mice; test: Adipose, muscle and heart tissue weights in WT and GDF-8 KO mice (Example 2); conditions: 200 ppm in diet, 21 days
EPI/PAR and RP fat pads = test: EPI/PAR and RP fat pad apoptosis, % DNA fragmentation (Example 2); type: in vivo; conditions: 200 ppm in diet, 21 days, WT and GDF-8 KO mice
Description: (§1) Animals: Twelve-week old male (n=10) and female (n=10) GDF-8 (−/−) knockout mice and male (n=10) and female (n=10) GDF-8 (+/+) WT mice were used in the study. GDF-8 knockout mice, which were derived from the 129/SvJ mouse strain, were originally obtained from MetaMorphix Inc. and were bred in-house for the study. Mice were housed singly in suspended wire cages in a room maintained at 22±1 C and with a 12:12 hour light/dark cycle. Mice were provided ground rodent chow (ProLab® RMH 2500; Purina Mills, St. Louis, Mo.) and water ad libitum. Mice were cared for in accordance with the Guide for the Care and Use of Laboratory Animals.
(§2) Materials: Clenbuterol (Sigma Chemical Company, St. Louis, Mo., item# C5423), was thoroughly mixed into the ground rodent chow to provide a 200 ppm concentration.
DNA Isolation and Apoptosis Assay: DNA was isolated from fresh fat tissues and separated into two fractions: fragmented and genomic DNA. The samples were first run on an agarose gel to identify a ladder pattern of internucleosomal DNA degradation, which is characteristic of apoptosis (Qian, H., M. J. Azain, M. M. Compton, D. L. Hartzell, G. J. Hausman, and C. A. Baile, Brain administration of leptin causes deletion of adipocytes by apoptosis. Endocrinology, 1998. 139(2): p. 791-4). Apoptosis was then quantified as the ratio of fragmented- to total-DNA as previously described (Gullicksen, P. S., R. G. Dean, and C. A. Baile, Detection of DNA Fragmentation and Apoptotic Proteins, and Quantification of Uncoupling Protein Expression by Real-Time RT-PCR in Adipose Tissue. J Biochem Biophys Methods, 2004. 58(1): p. 1-13). […] DNA content was measured using PicoGreen (Molecular Probes, Inc., Eugene, Oreg.) on a SpectraMax Gemini Spectrofluorometer (Molecular Devices, Sunnyvale, Calif.). […] Apoptosis was verified by the presence of a DNA ladder pattern, which was visualized by a Fluor Chem 8000 fluorescence imaging system (Alpha Innotech, San Leandro, Calif.).
Statistical Analysis: The study was analyzed as a 2×2×2 factorial design (N=5/cell). […]

mouse adipocytes [2] = conditions: in vitro; cited from earlier work
[3] = Body composition analysis by PIXImus densitometry in WT and GDF-8 KO mice (Example 2); type: in vivo; conditions: 200 ppm in diet, 21 days
mouse adipocytes [4] = conditions: in vitro; cited from earlier work; remark: listed apart in the source
[5] = Clenbuterol feeding for 21 days in WT and GDF-8 KO mice: body weight, weight gain, food intake, feed efficiency (Example 2); type: in vivo; conditions: 200 ppm in diet
Description: The effects of clenbuterol on muscularity and adiposity in male and female GDF-8 knockout (GDF-8 KO) (n=20) and wild type (WT) mice (n=20) were tested by feeding 0 or 200 ppm clenbuterol for 21 days. […] For all other variables, GDF-8 KO and WT mice responded similarly to clenbuterol.
as §1, §2
Daily Observations: Food intake was measured daily, and body weight was measured on days 0, 3, 7, 10, 14, 17, 20, and 21 at approximately 1430 h during the treatment period. At 15 weeks of age (day 21), a final body weight measurement was obtained approximately one hour prior to euthanasia, and mice were sacrificed by decapitation following CO2 asphyxiation.
Statistical Analysis: The study was analyzed as a 2×2×2 factorial design (N=5/cell). Analysis of variance (SAS) was used to determine significance of main effects of gender, genotype (WT vs. GDF-8 KO) and clenbuterol (0 vs. 200 ppm) and interactions. Statistically significant differences are defined at the 95% confidence interval.
Feed efficiency was calculated as the total food intake (g)/cumulative weight gain (g). There was a trend (p=0.07) for clenbuterol to improve feed efficiency (g feed/g weight gain) (Table 3).

[6] = WT and GDF-8 KO mice, Mean ± SEM
[7] = WT and GDF-8 KO mice, main effect, Mean ± SEM

CC(C)(C)NCC(O)c1cc(Cl)c(N)c(Cl)c1 (stereo not drawn) [Clenbuterol, clenbuterol]
Apoptosis in brain and liver (brain and liver): protect against apoptosis
EPI/PAR (and RP) fat pad weights compared to control [1]: decreased; also recorded: reduced
Heart weight compared to control [1]: increased
Weights of dissected skeletal muscles [1]: did not affect; also recorded: no effect
EPI/PAR (and RP) fat pad weights compared to control ([1]; listed as clenbuterol): reduced; also recorded: smaller
Heart weight compared to control ([1]; listed as clenbuterol): significantly increased
Adipocyte apoptosis in EPI/PAR and RP fat pads compared to control (EPI/PAR and RP fat pads): increased
% DNA Fragmentation EPI/PAR (EPI/PAR and RP fat pads; Mean ± SEM, control 0.9 ± 0.1): 2.5 ± 0.2 %
% DNA Fragmentation RP (EPI/PAR and RP fat pads; Mean ± SEM, control 0.9 ± 0.2): 2.5 ± 0.2 %
Insulin-induced lipolysis in mouse adipocytes (mouse adipocytes [2]): inhibited
Lipolysis in mouse adipocytes (mouse adipocytes [2]): stimulated
% Fat [3, 6]: 15.7 ± 1.0%
Bone Mineral Content [3, 6]: 0.52 ± 0.02 g
Bone Mineral Density [3, 6]: 0.06 ± 0.001 g
Fat [3, 6]: 4.1 ± 0.2 g
Lean [3, 6]: 22.7 ± 1.1 g
Effect on BMD, BMC, area, lean weight, fat weight, or fat % ([3]; main effects): no effect
Insulin binding to mouse adipocytes (mouse adipocytes [4]): decreased
Effect on final body weight (FBW) [5]: did not significantly affect
Food Intake [5, 7]: 4.78 ± 0.16 g/day
Wt Gain [5, 7]: 0.165 ± 0.01 g/day
Feed Efficiency ([5]; WT and GDF-8 KO mice, main effect, p = 0.07): 34.4 g feed/g wt gain
Effect on food intake, body weight or body composition ([5]; WT or GDF-8 KO mice): did not affect
Final Body Wt ([5]; female and male WT and GDF-8 KO mice, main effect, Mean ± SEM): 29.9 ± 1.2 g
Feed efficiency in females compared to control ([5]; female mice): no effect; also recorded: not in females
Weight gain in females compared to control ([5]; female mice): not in females
Weight gain compared to control ([5]; main effect, p<0.05): increased
Feed efficiency in males compared to control ([5]; male mice): more than doubled; also recorded: significantly improved
More efficient (feed efficiency) compared to males fed control diet ([5]; male mice): more than 250%
Weight gain in males compared to control ([5]; male mice): significantly increased; also recorded: twice as much
